# From the NIST ThermoML archive (doi:10.1016/j.fluid.2010.05.017)
# Numbers after ± are expanded uncertainties.
# Tests used:
# [1] = xn = mol fraction of the nth substance listed; details: 298.15 K, 101 kPa, Liquid, Vibrating tube method
# [2] = 298.15 K; 101.33 kPa; Liquid; Vibrating tube method
# [3] = refractive index (Na D-line) (dimensionless); details: 298.15 K; 101.33 kPa; Liquid; Standard Abbe refractometry
structure (smiles),measurement,setting,value
"Cc1ccc(C)cc1 [1,4-dimethylbenzene] + CCCCCC",mass density,[1]; x2 = 0,856.59 ± 0.24 kg/m3
same,mass density,[1]; x2 = 0.048,847.14 ± 2.4 kg/m3
same,mass density,[1]; x2 = 0.098,836.82 ± 2.5 kg/m3
same,mass density,[1]; x2 = 0.196,816.92 ± 2.5 kg/m3
same,mass density,[1]; x2 = 0.292,797.23 ± 2.5 kg/m3
same,mass density,[1]; x2 = 0.394,776.41 ± 2.5 kg/m3
same,mass density,[1]; x2 = 0.492,756.57 ± 2.4 kg/m3
same,mass density,[1]; x2 = 0.591,736.73 ± 2.4 kg/m3
same,mass density,[1]; x2 = 0.692,716.48 ± 2.4 kg/m3
same,mass density,[1]; x2 = 0.792,696.69 ± 2.4 kg/m3
same,mass density,[1]; x2 = 0.892,676.71 ± 2.4 kg/m3
same,mass density,[1]; x2 = 0.948,665.7 ± 2.4 kg/m3
CCCCCC [hexane] + Cc1ccccc1C,mass density,[1]; x1 = 1,655.19 ± 0.25 kg/m3
"Cc1ccccc1C [1,2-dimethylbenzene] + CCCCCC",mass density,[1]; x2 = 0,875.37 ± 0.24 kg/m3
same,mass density,[1]; x2 = 0.045,865.52 ± 2.7 kg/m3
same,mass density,[1]; x2 = 0.097,853.5 ± 2.7 kg/m3
same,mass density,[1]; x2 = 0.189,832.71 ± 2.7 kg/m3
same,mass density,[1]; x2 = 0.295,809.05 ± 2.7 kg/m3
same,mass density,[1]; x2 = 0.397,786.32 ± 2.7 kg/m3
same,mass density,[1]; x2 = 0.495,764.54 ± 2.7 kg/m3
same,mass density,[1]; x2 = 0.597,742.07 ± 2.6 kg/m3
same,mass density,[1]; x2 = 0.697,720.32 ± 2.6 kg/m3
same,mass density,[1]; x2 = 0.797,698.71 ± 2.6 kg/m3
same,mass density,[1]; x2 = 0.901,676.45 ± 2.6 kg/m3
same,mass density,[1]; x2 = 0.95,665.83 ± 2.6 kg/m3
CCCCCC [hexane] + Cc1ccc(C)cc1,mass density,[1]; x1 = 1,655.19 ± 0.25 kg/m3
CCCCCC [hexane] + Cc1cccc(C)c1,mass density,[1]; x1 = 1,655.19 ± 0.25 kg/m3
"Cc1cccc(C)c1 [1,3-dimethylbenzene] + CCCCCC",mass density,[1]; x2 = 0,859.79 ± 0.24 kg/m3
same,mass density,[1]; x2 = 0.05,849.62 ± 2.5 kg/m3
same,mass density,[1]; x2 = 0.098,839.51 ± 2.5 kg/m3
same,mass density,[1]; x2 = 0.194,819.34 ± 2.5 kg/m3
same,mass density,[1]; x2 = 0.297,797.9 ± 2.5 kg/m3
same,mass density,[1]; x2 = 0.398,777.18 ± 2.5 kg/m3
same,mass density,[1]; x2 = 0.498,756.55 ± 2.5 kg/m3
same,mass density,[1]; x2 = 0.6,735.62 ± 2.5 kg/m3
same,mass density,[1]; x2 = 0.699,715.46 ± 2.5 kg/m3
same,mass density,[1]; x2 = 0.793,696.42 ± 2.4 kg/m3
same,mass density,[1]; x2 = 0.896,676.03 ± 2.4 kg/m3
same,mass density,[1]; x2 = 0.948,665.51 ± 2.4 kg/m3
CCOS(=O)(=O)[O-].CC[n+]1cccc(C)c1 [1-ethyl-3-methylpyridinium ethylsulfate],mass density,[2],1219.61 ± 0.42 kg/m3
same,refractive index,[3],1.50591 ± 0.00071
